In one test the test system is ENaC-α. Briefly: ENaC-α expression (real-time PCR, western blot) in rat RMG primary cultures and retinal explants. The format is cell-based. The procedure: (§1) Rat RMG cells were obtained as described (deKozak, Y., Naud, M. C., Bellot, J., Faure, J. P., and Hicks, D. (1994) Differential tumor necrosis factor expression by resident retinal cells from experimental uveitis-susceptible and -resistant rat strains. J Neuroimmunol 55, 1-9). Briefly, rats at postnatal (PN) day 17 (when RMG cells are mature) were sacrificed and eyes enucleated. Intact eyeballs were maintained in DMEM overnight at room temperature in the dark, and then incubated 45 min with 2 mg/ml trypsin/collagenase I at 37° C. The neural retinas were separated from the lens and vitreous, cut into small fragments and plated in Petri dishes containing DMEM supplemented with 10% FCS, 100 units/ml penicillin, 100 µg/ml streptomycin, and 0.2% amphotericin B. Cultures were maintained at 37° C. in a humidified atmosphere containing 5% CO2. After 5 to 6 days, the cultures were washed extensively with medium so that only a strongly adherent flat cell population remained.
(§2) Müller cells were seeded in 6-well tissue culture plates (Becton Dickinson, Le Pont de Claix, France). Rat PN17 RMG cells were maintained in their initial Petri dishes. Sub confluent (80%) cells were incubated in media supplemented with 10% steroid-free (charcoal treated) FCS for 24 hrs. Corticosteroid (Sigma-Aldrich, Saint Quentin Fallavier, France) treatments were then applied respectively for a further 24 hrs: 10 nM aldosterone, 10 nM aldosterone plus 1).IM RU38486 (GR-specific antagonist), 10 nM aldosterone plus 1 µM RU26752 (MR-specific antagonist) or 1 µM dexamethasone. The steroids were previously dissolved in 2% steroid-free FCS media containing 0.1% ethanol. Control cells were treated with 0.1% ethanol in media.
(§3) After enucleation, rat retinas were isolated immediately under aseptic conditions and cut into 4 pieces. They were then transferred onto a Cyclopore 0.2).Im polycarbonate membrane (Whatman, Maidstone, England), and flatmounted with the vitreal side up. The support membranes were placed in 6-well tissue culture plates containing 2 ml DMEM supplemented with 10% steroid-free FCS, 1% penicillin-streptomycin and 0.1% amphotericin B. Explants were treated with corticosteroids as described for cultured cells. Similarly, the dose-dependent effect of aldosterone (0.1-100 nM) was analyzed on retinal explants in separate experiments.
(§4) Total RNA was isolated from the treated RMG cells and retinal explants using RNeasy Mini Kit (Qiagen, Courtaboeuf, France). First-strand cDNA was synthesized after DNase I (Qiagen) treatment using random primers (Invitrogen) and superscript II reverse transcriptase (Invitrogen). Transcript levels of ENaC-a, Kir4.1 and AQP4 were analyzed by real-time PCR performed in 7500 Real-Time PCR System (Applied Biosystems, Foster City, Calif., USA) with either TaqMan® (Applied Biosystems) or SYBR® Green (Invitrogen, Cergy Pontoise, France) detection. The 18S was used as internal control.
(§5) Retinal explants were homogenized in Np40 buffer in the presence of protease inhibitors. The protein concentration was determined by the Bradford method. Equal amounts of protein (12 .ug) were separated on Novex® 4%-12% Tris-Glycine gel (Invitrogen), transferred to nitrocellulose, and the blots were incubated with primary antibodies at 4° C. overnight. The membranes were washed, incubated with horse radish peroxidase conjugated goat anti-rabbit IgG (1:3000, Vector, AbCys, Paris, France) for 1 hr at room temperature, and developed using ECL Plus western blotting detection reagents (GE healthcare, Orsay, France). The j3-actin was used as internal control. The following primary antibodies were used: rabbit anti-alpha ENaC (1:500, Abcam, Cambridge, Mass., USA), rabbit anti-Kir4.1 (1:400, Alomone Labs, Jerusalem, Israel), rabbit anti-AQP4 (1:750, Millipore, St Quentin en Yvelines, France) and rabbit anti-j3-actin (1:1000, Abcam)
(Quantitative PCR measures a nucleic acid by following its amplification.)

The test system of test [1] is Kir4.1. The test can be described thus: Kir4.1 expression (real-time PCR, western blot) in rat RMG primary cultures and retinal explants. The format is cell-based. How it is done: as §1, §2, §3, §4, §5
The subject of test [2] is Kir4.1. Briefly: Kir4.1 immunofluorescence in retina of aldosterone-injected eyes. The format is in vivo, Lewis rats. The settings on record: intravitreous aldosterone vs sham-injected. The procedure:
(§6) Anesthesia of rats was induced by intramuscular injection of ketamine (100 mg/kg, Virbac, Carros, France) and chlorpromazine (0.65 mg/kg, LARGACTIL®, Sanofi Aventis, Livron sur Drome, France). Intravitreous injections were performed using microfine (300 μl) syringes with 30 G needles under topical anesthesia (tetracaine 1%, Aldrich, Lyon, France). Rat eyes were injected with 5 μl aldosterone diluted in 0.9% saline to obtain a concentration of 200 nM for injection, corresponding to a final concentration of 20 nM in the vitreous. Control rat eyes were injected with 5 μl saline. Twenty-four hrs after injection, rats were sacrificed. Eyes were then removed for retinal flat mounting, immunohistochemistry and morphological analysis respectively.
Eyes were snap frozen in Tissue-Tek OCT-compound (Bayer Diagnostics, Puteaux, France). Ten μm cryostat sections of rat eyes were fixed in 4% PFA for 15 min and permeabilized with 0.1% Triton X-I00 for 30 min. Unspecific binding sites were blocked with 5% normal goat serum for 1 hr. The sections were then incubated with primary antibodies for 1 hr at room temperature, washed in PBS, and further incubated with secondary antibodies for 1 hr. […] Images were taken using a fluorescence microscope (Olympus BX51, Rungis, France) equipped with a CCD camera (Olympus DP70). […]

Test [3] deals with AQP4. The test can be described thus: AQP4 immunofluorescence and flat-mount confocal imaging in retina of aldosterone-injected eyes. The format is in vivo, Lewis rats. The following applies: aldosterone-injected vs sham-injected eyes. How it is done: as §6
Eyes were fixed for 15 min in 4% paraformaldehyde (PFA, LADD, Inland Europe, Conflans-sur-Lanterne, France). After washing, retinas were isolated, cut by 4 orthogonal incisions and post-fixed with acetone 100% at −20° C. for 15 min. […]
Eyes were snap frozen in Tissue-Tek OCT-compound (Bayer Diagnostics, Puteaux, France). […] Images were taken using a fluorescence microscope (Olympus BX51, Rungis, France) equipped with a CCD camera (Olympus DP70). […]

Test [4] has as its system AQP4. Briefly: AQP4 mRNA expression in RMG cells (Example 2). The format is cell-based. The source says:
We have performed several experiments.

A further test deals with retina. Briefly: Intraocular injection in Brown Norway rats (gain of function mutation in the MR gene): CSCR-like retinal pathology. It is filed as in vivo. The following applies: FIGS. 1 and 2.
[5] abbreviates: 24 hrs treatment, rat RMG primary cultures and retinal explants.

SMILES strings stand for the structures. “Also recorded” adds a separate entry of the source.

Regarding `C[C@]12CCC(=O)C=C1CC[C@@H]1[C@@H]2[C@@H](O)C[C@]2(C=O)[C@@H](C(=O)CO)CC[C@@H]12` [aldosterone], the “ENaC-α subunit mRNA expression” value in the test with ENaC-α (setting [5]) was “significant up-regulation”. Further, the “dose dependence of ENaC-α transcripts” value in the test with ENaC-α (aldosterone 0.1-100 nM, retinal explants) was “dose dependent manner”. For the same compound, the “expression of sodium channel ENaC-a” value in the test on ENaC-α (aldosterone 24 hrs) was determined as 6.5 fold. Besides, the “ENaC-α expression at the protein level” value with ENaC-α (western blot, retinal explants) is “up-regulated”. In addition, in the test with Kir4.1 [1] (setting [5]), the “Kir4.1 expression (transcripts)” value was “up-regulate”. Further, in the test on Kir4.1 [1] (aldosterone 24 hrs), the “expression of potassium channel Kir4.1” value came to 1.9 fold. The “aldosterone concentration at which increase in Kir4.1 transcripts is fully saturated” value in the test with Kir4.1 [1] (dose-dependent effect, retinal explants) is 10 nM. The “Kir4.1 expression at the protein level” value with Kir4.1 [1] (western blot) was “up-regulated”. In the test with Kir4.1 [2], the “Kir4.1 localization in retina” value is given as “additional localization; also recorded: enhanced Kir4.1 immunofluorescence in the RMG apical microvilli in the OLM; also recorded: additional mislocalization”. The “AQP4 localization / pattern of expression in retina” value in the test on AQP4 [3] is given as “additional localization; also recorded: extends all along RMG prolongations up to the OLM in their apical microvilli; also recorded: perivascular AQP4 fluorescence is more intense; also recorded: additional mislocalization”. The “expression of the water channel AQP4” value in the test on AQP4 [4] was “up-regulates”. The “retinal pathology after intraocular injection” value in the test with retina is “develop a retinal pathology similar to CSCR; also recorded: vasodilation of choroid vessels, rupture of the junction between RPE cells, swallowing of the photoreceptor segments and sub retinal fluid accumulation; also recorded: develop a retinal pathology very close to CSCR”.

(Values after patent US9610294B2, “Methods and compositions for the treatment of fluid accumulation in and/or under the retina” (UNIVERSITE PARIS DESCARTES, priority 2010, dated 2017).)
